From US7718651B2, “Inhibitors of FtsZ and uses thereof” (priority 2002, dated 2010)

test system: M. tuberculosis H37Rv; experiment: microbe, parasite or virus in culture; type: cell-based; settings: not given

In order of rising “% Inh” value:
1. CCOC(=O)Nc1cc2c(c(N)n1)N=C(c1ccccc1)[C@H](C)N2 [Compound A110]  43%
2. CCOC(=O)Nc1cc2c(c(N)n1)N=C(c1ccccc1)[C@H](C)N2 [Compound A108]  45%
3. CCOC(=O)Nc1cc2c(c(N)n1)N=C(c1ccccc1)[C@@H](C)N2 [Compound A98]  57%
4. CCOC(=O)Nc1cc(NCCCCc2ccccc2)c(N)c(N)n1 [Compound A93]  60%

same assay, conditions: M. tuberculosis H37Rv, screen concentration 12.5 g/ml [sic], Table 8

In order of rising “% Inh” value:
1. CCOC(=O)Nc1cc2[nH]c(-c3ccccc3)nc2c(N)n1 [Compound A125]  30%
2. CCOC(=O)Nc1cc(NCCc2ccc(S(N)(=O)=O)cc2)c([N+](=O)[O-])c(N)n1 [Compound A126]  30%
3. CCOC(=O)Nc1cc(NC/C(CN(C)c2ccccc2)=N/O)c([N+](=O)[O-])c(N)n1 [Compound A127]  30%
4. CCOC(=O)Nc1cc(NCC(O)CN(C)c2ccc(Cl)cc2)c([N+](=O)[O-])c(N)n1 (stereo not drawn) [Compound A122]  31%
5. CCOC(=O)Nc1cc2ncc(C(=O)N(C)c3ccccc3)nc2c(N)n1 [Compound A123]  31%
6. CCOC(=O)Nc1cc2oc(-c3cc(OC)c(OC)c(OC)c3)nc2c(N(CCc2ccccc2)Cc2ccccc2)n1 [Compound A124]  31%
7. CCOC(=O)Nc1cc(Nc2ccc(Cl)cc2)c2nc(-c3ccc(Cl)cc3)c(-c3ccc(Cl)cc3)nc2n1 [Compound A121]  33%
8. CCOC(=O)Nc1cc2c(nc(SCc3ccccc3)n2N)c(N)n1 [Compound A120]  34%
9. CCOC(=O)Nc1cc(NC(c2ccccc2)c2ccccc2)c2nc(-c3ccccc3)c(-c3ccccc3)nc2n1 [Compound A119]  36%
10. CCOC(=O)Nc1cc(NC(c2ccccc2)c2ccccc2)c(N)c(N)n1 [Compound A117]  40%
11. CCOC(=O)Nc1cc(NC(C)CCCN(CC)CC)c2ncc(-c3cc(OC)c(OC)c(OC)c3)nc2n1.Cl.Cl (stereo not drawn) [Compound A118]  40%
12. COC(=O)Nc1cc2c(c(N)n1)N=C(c1ccccc1)[C@H](C)N2 [Compound A113]  41%
13. CCOC(=O)Nc1cc2[nH]c(-c3ccc(OC)cc3)nc2c(N)n1 [Compound A114]  41%
14. CCOC(=O)Nc1cc(NCCC(O)c2ccccc2)c([N+](=O)[O-])c(N)n1 (stereo not drawn) [Compound A115]  41%
15. CCOC(=O)Nc1cc(N)c([N+](=O)[O-])c(N[C@H](C)C(=O)c2ccccc2)n1 [Compound A112]  42%
16. CCOC(=O)Nc1cc(NCc2ccccc2)c2nc[nH]c2n1 [Compound A111]  43%
17. CCOC(=O)Nc1cc2c(cn1)N=C(c1ccccc1)[C@H](C)N2 [Compound A105]  49%
18. CCOC(=O)Nc1cc(Cl)c([N+](=O)[O-])c(N)n1 [Compound A106]  49%
19. CCOC(=O)Nc1cc(NC(C)C(O)Cc2ccccc2)c([N+](=O)[O-])c(N)n1 (stereo not drawn) [Compound A104]  51%
20. CCOC(=O)Nc1cc(N)c2ncn(-c3ccccc3)c2n1 [Compound A103]  53%
21. CCOC(=O)Nc1cc(NCC(O)CN(C)c2ccccc2)c([N+](=O)[O-])c(N)n1 (stereo not drawn) [Compound A101]  54%
22. CCOC(=O)Nc1cc(NC(C)CCCN(CC)CC)c2ncc(-c3ccc(C(F)(F)F)cc3)nc2n1 (stereo not drawn) [Compound A102]  54%
23. CCOC(=O)Nc1cc(NC(C)[C@H](O)c2ccccc2)c(N)c(N)n1 (stereo partly drawn) [Compound A99]  56%
24. CCOC(=O)Nc1cc2c(c(N)n1)N=C(c1ccc3ccccc3c1)CS2 [Compound A97]  58%
25. CCOC(=O)Nc1cc(Cl)c([N+](=O)[O-])c(NC(=O)OCC)n1 [Compound A94]  59%
26. CCOC(=O)Nc1cc(NCCc2ccccc2)c(N)c(N)n1.Cl.Cl [Compound A95]  59%
27. CCOC(=O)Nc1cc2c(nc(SCc3ccc4c(c3)OCO4)n2N)c(N)n1 [Compound A91]  61%
28. CCOC(=O)Nc1cc(Nc2ccc(Cl)cc2)c(N)c(N)n1 [Compound A92]  61%
29. CCOC(=O)Nc1cc(NCCCCc2ccccc2)c([N+](=O)[O-])c(N)n1 [Compound A90]  62%
30. CCOC(=O)Nc1cc2c(nc(-c3ccccc3)n2C(c2ccccc2)c2ccccc2)c(Cl)n1 [Compound A89]  63%
31. CCCCC1Nc2cc(NC(=O)OCC)nc(N)c2N=C1C (stereo not drawn) [Compound A87]  64%
32. CCOC(=O)Nc1cc2c(c(N)n1)N=C(c1ccc(C)c(C)c1)CN2 [Compound A88]  64%
33. CCOC(=O)Nc1cc2c(c(N)n1)N=C1c3ccccc3CCC1O2.Cl.Cl (stereo not drawn) [Compound A85]  65%
34. CCOC(=O)Nc1cc(NCCCCc2ccccc2)c2nc[nH]c2n1 [Compound A86]  65%
35. CCOC(=O)Nc1cc(SC(=N)N)c([N+](=O)[O-])c(N)n1 [Compound A84]  66%
36. CCOC(=O)Nc1cc(NCCc2ccccc2)c([N+](=O)[O-])c(N)n1 [Compound A82]  68%
37. CCOC(=O)Nc1cc(N)c2ncn(/N=C/c3ccccc3)c2n1 [Compound A81]  69%
38. CCOC(=O)Nc1cc2c(c(N)n1)N=C(CN(C)c1ccccc1)CN2 [Compound A80]  70%
39. CCOC(=O)Nc1cc2[nH]c(C)nc2c(N(CCc2ccccc2)Cc2ccccc2)n1 [Compound A69]  71%
40. CCOC(=O)Nc1cc2c(c(N)n1)N=C(c1ccccc1)CS2 [Compound A77]  71%
41. CCOC(=O)Nc1cc2ncc(CN(C)c3ccccc3)nc2c(N)n1 [Compound A78]  71%
42. CCOC(=O)Nc1cc2c(c(N)n1)N=C(Cc1ccccc1)[C@H](C)N2 [Compound A74]  72%
43. Br.CCOC(=O)Nc1cc(N)c([N+](=O)[O-])c(NCC(C)=O)n1 [Compound A75]  72%
44. CCOC(=O)Nc1cc(N)c([N+](=O)[O-])c(Cl)n1 [Compound A76]  72%
45. CCOC(=O)Nc1cc(NCCc2ccccc2)c2nc[nH]c2n1 [Compound A73]  74%
46. CCOC(=O)Nc1cc(N/N=C/c2ccccc2)c2[nH]c(=S)[nH]c2n1 [Compound A71]  75%
47. CCOC(=O)Nc1cc2nc(-c3ccccc3)c(-c3ccccc3)nc2c(OCC)n1 [Compound A72]  75%
48. CCOC(=O)Nc1cc(NC(c2ccccc2)c2ccccc2)c2[nH]c(=O)cnc2n1 [Compound A70]  76%
49. CCOC(=O)Nc1cc2c(c(N)n1)N=C(c1cccc(OC)c1)CS2 [Compound A68]  79%
50. CCCCC(Nc1cc(NC(=O)OCC)nc(N)c1[N+](=O)[O-])C(C)=O (stereo not drawn) [Compound A67]  81%
51. CCOC(=O)Nc1cc2c(c(N)n1)N=C(c1ccccc1)CN2 [Compound A65]  83%
52. CCOC(=O)Nc1cc(NCc2ccccc2)c([N+](=O)[O-])c(N)n1 [Compound A66]  83%
53. CCOC(=O)Nc1cc(Nc2ccccc2)c2nc[nH]c2n1.Cl [Compound A64]  84%
54. CCOC(=O)Nc1cc(NCC(O)CN(C)c2ccc(C)cc2)c([N+](=O)[O-])c(N)n1.Cl (stereo not drawn) [Compound A62]  86%
55. CCOC(=O)Nc1cc(NCC(O)CN(C)c2ccccc2)c2nc(O)[nH]c2n1 (stereo not drawn) [Compound A63]  86%
56. CCOC(=O)Nc1cc(NC(c2ccccc2)c2ccccc2)c2ncc(O)nc2n1 [Compound A61]  87%
